Converted amounts (≈) assume the structure as drawn.
Assays:
Plasmodium falciparum [1] = test: Antimalarial activity against chloroquine-sensitive and mefloquine-resistant Plasmodium falciparum D6 assessed as inhibition of [3H]hypoxanthine incorporation by liquid scintillation spectrometry; format: functional
Plasmodium falciparum [2] = test: Antimalarial activity against chloroquine, mefloquine and pyrimethamine-resistant Plasmodium falciparum TM91C235 assessed as inhibition of [3H]hypoxanthine incorporation by liquid scintillation spectrometry; format: functional
Plasmodium falciparum [3] = test: Antimalarial activity against chloroquine, mefloquine and pyrimethamine-resistant Plasmodium falciparum TM90C2A assessed as inhibition of [3H]hypoxanthine incorporation by liquid scintillation spectrometry; format: functional
Plasmodium falciparum [4] = test: Antimalarial activity against chloroquine-resistant and mefloquine-sensitive Plasmodium falciparum W2 assessed as inhibition of [3H]hypoxanthine incorporation by liquid scintillation spectrometry; format: functional
[5] = Apparent permeability from apical to basolateral side of dog MDCK cells at 5 uM after 2 hrs by LC/MS/MS analysis; format: ADME, cell-based, Canis lupus familiaris
Plasmodium falciparum [6] = test: Antimalarial activity against chloroquine-sensitive and mefloquine-resistant Plasmodium falciparum D6 by SYBR Green I-based fluorescence assay; format: functional
Plasmodium falciparum [7] = test: Antimalarial activity against chloroquine, mefloquine and pyrimethamine-resistant Plasmodium falciparum TM91C235 by SYBR Green I-based fluorescence assay; format: functional
Plasmodium falciparum [8] = test: Antimalarial activity against chloroquine, mefloquine and pyrimethamine-resistant Plasmodium falciparum TM90C2A; format: functional
Plasmodium berghei [9] = test: Antimalarial activity against Plasmodium berghei infected in mouse assessed as host survival at 320 mg/kg, po administered as single dose; format: functional
Plasmodium berghei [10] = test: Antimalarial activity against Plasmodium berghei infected in mouse assessed as host survival at 5 mg/kg, po administered as single dose; format: functional
Plasmodium berghei [11] = test: Antimalarial activity against Plasmodium berghei infected in mouse assessed as complete cure at 20 mg/kg, po administered as single dose measured on day 31; format: functional
Plasmodium berghei [12] = test: Antimalarial activity against Plasmodium berghei infected in mouse assessed as host survival at 160 mg/kg, po administered as single dose measured on day 31; format: functional; conditions: 744 h
Plasmodium falciparum [13] = test: Antimalarial activity against chloroquine-resistant and mefloquine-sensitive Plasmodium falciparum W2; format: functional
Plasmodium berghei [14] = test: Antimalarial activity against Plasmodium berghei infected in mouse assessed as host survival at 40 mg/kg, po administered as single dose; format: functional
Plasmodium falciparum [15] = test: Antimalarial activity against chloroquine, mefloquine and pyrimethamine-resistant Plasmodium falciparum TM91C235; format: functional
Plasmodium falciparum [16] = test: Antimalarial activity against mefloquine-resistant and chloroquine-sensitive Plasmodium falciparum D6; format: functional
Plasmodium berghei [17] = test: Antimalarial activity against Plasmodium berghei infected in mouse assessed as host survival at 20 mg/kg, po administered as single dose measured on day 31; format: functional; conditions: 744 h
Plasmodium berghei [18] = test: Antimalarial activity against Plasmodium berghei infected in mouse assessed as complete cure at 5 mg/kg, po administered as single dose measured on day 31; format: functional
Plasmodium berghei [19] = test: Antimalarial activity against Plasmodium berghei infected in mouse assessed as host survival at 20 mg/kg, po administered as single dose; format: functional
Plasmodium berghei [20] = test: Antimalarial activity against Plasmodium berghei infected in mouse assessed as host survival at 5 mg/kg, po administered as single dose measured on day 31; format: functional; conditions: 744 h
Plasmodium berghei [21] = test: Antimalarial activity against Plasmodium berghei infected in mouse assessed as complete cure at 80 mg/kg, po administered as single dose measured on day 31; format: functional
Plasmodium berghei [22] = test: Antimalarial activity against Plasmodium berghei infected in mouse assessed as host survival at 160 mg/kg, po administered as single dose; format: functional
Plasmodium berghei [23] = test: Antimalarial activity against Plasmodium berghei infected in mouse assessed as host survival at 40 mg/kg, po administered as single dose measured on day 31; format: functional; conditions: 744 h
Plasmodium berghei [24] = test: Antimalarial activity against Plasmodium berghei infected in mouse assessed as host survival at 10 mg/kg, po administered as single dose; format: functional
Plasmodium berghei [25] = test: Antimalarial activity against Plasmodium berghei infected in mouse assessed as host survival at 320 mg/kg, po administered as single dose measured on day 31; format: functional; conditions: 744 h
Plasmodium berghei [26] = test: Antimalarial activity against Plasmodium berghei infected in mouse assessed as host survival at 10 mg/kg, po administered as single dose measured on day 31; format: functional; conditions: 744 h
Plasmodium berghei [27] = test: Antimalarial activity against Plasmodium berghei infected in mouse assessed as complete cure at 10 mg/kg, po administered as single dose measured on day 31; format: functional
Plasmodium berghei [28] = test: Antimalarial activity against Plasmodium berghei infected in mouse assessed as complete cure at 40 mg/kg, po administered as single dose measured on day 31; format: functional
Plasmodium berghei [29] = test: Antimalarial activity against Plasmodium berghei infected in mouse assessed as host survival at 80 mg/kg, po administered as single dose measured on day 31; format: functional; conditions: 744 h
Plasmodium berghei [30] = test: Antimalarial activity against Plasmodium berghei infected in mouse assessed as host survival at 80 mg/kg, po administered as single dose; format: functional
Plasmodium berghei [31] = test: Antimalarial activity against Plasmodium berghei infected in mouse assessed as complete cure at 320 mg/kg, po administered as single dose measured on day 31; format: functional
Plasmodium berghei [32] = test: Antimalarial activity against Plasmodium berghei infected in mouse assessed as complete cure at 160 mg/kg, po administered as single dose measured on day 31; format: functional

Structure (SMILES): CN(C)CCNCC(O)c1cc(C(F)(F)F)nc2c(C(F)(F)F)cccc12 (stereo not drawn)
- IC90 (Plasmodium falciparum [1]): > 0.5 µg/mL
- IC90 (Plasmodium falciparum [2]): > 0.5 µg/mL
- IC90 (Plasmodium falciparum [3]): > 0.5 µg/mL
- IC90 (Plasmodium falciparum [4]): > 0.5 µg/mL

Structure (SMILES): CCCCNCCNCC(O)c1cc(C(F)(F)F)nc2c(C(F)(F)F)cccc12 (stereo not drawn)
- IC90 (Plasmodium falciparum [1]): 0.155 µg/mL (≈ 0.366 µM)
- IC90 (Plasmodium falciparum [2]): 0.283 µg/mL (≈ 0.668 µM)
- IC90 (Plasmodium falciparum [3]): 0.319 µg/mL (≈ 0.753 µM)
- Papp A→B at 2 h, 5 µM [5]: 5.9 ×10⁻⁶ cm/s
- IC90 (Plasmodium falciparum [6]): 0.128 µg/mL (≈ 0.302 µM)
- IC90 (Plasmodium falciparum [7]): 0.236 µg/mL (≈ 0.557 µM)
- IC90 (Plasmodium falciparum [4]): 0.069 µg/mL (≈ 0.163 µM)

Structure (SMILES): CNCCNCC(O)c1cc(C(F)(F)F)nc2c(C(F)(F)F)cccc12 (stereo not drawn)
- IC90 (Plasmodium falciparum [1]): > 0.5 µg/mL
- IC90 (Plasmodium falciparum [2]): > 0.5 µg/mL
- IC90 (Plasmodium falciparum [3]): > 0.5 µg/mL
- IC90 (Plasmodium falciparum [4]): 0.481 µg/mL (≈ 1.26 µM)

Structure (SMILES): CN(CCNCC(O)c1cc(C(F)(F)F)nc2c(C(F)(F)F)cccc12)C1CCCC1 (stereo not drawn)
- IC90 (Plasmodium falciparum [1]): 0.048 µg/mL (≈ 0.107 µM)
- IC90 (Plasmodium falciparum [2]): 0.106 µg/mL (≈ 0.236 µM)
- IC90 (Plasmodium falciparum [3]): 0.112 µg/mL (≈ 0.249 µM)
- Papp A→B at 2 h, 5 µM [5]: 17 ×10⁻⁶ cm/s
- IC90 (Plasmodium falciparum [6]): 0.035 µg/mL (≈ 0.0779 µM)
- IC90 (Plasmodium falciparum [7]): 0.109 µg/mL (≈ 0.243 µM)
- IC90 (Plasmodium falciparum [4]): 0.011 µg/mL (≈ 0.0245 µM)

Structure (SMILES): O[C@H](CNCCNC1CC1)c1cc(C(F)(F)F)nc2c(C(F)(F)F)cccc12
- IC90 (Plasmodium falciparum [8]): 0.073 µg/mL (≈ 0.179 µM)
- MST (Plasmodium berghei [9]): 30 days
- MST (Plasmodium berghei [10]): 6.6 days
- Activity (Plasmodium berghei [11]): 0%
- survival at 160 mg/kg (Plasmodium berghei [12]): 0%
- IC90 (Plasmodium falciparum [13]): 0.011 µg/mL (≈ 0.027 µM)
- MST (Plasmodium berghei [14]): 10 days
- IC90 (Plasmodium falciparum [15]): 0.077 µg/mL (≈ 0.189 µM)
- IC90 (Plasmodium falciparum [16]): 0.027 µg/mL (≈ 0.0663 µM)
- survival at 20 mg/kg (Plasmodium berghei [17]): 0%
- Activity (Plasmodium berghei [18]): 0%
- MST (Plasmodium berghei [19]): 6.8 days
- survival at 5 mg/kg (Plasmodium berghei [20]): 0%
- Activity (Plasmodium berghei [21]): 0%
- MST (Plasmodium berghei [22]): 19 days
- survival at 40 mg/kg (Plasmodium berghei [23]): 0%
- MST (Plasmodium berghei [24]): 6.6 days
- survival at 320 mg/kg (Plasmodium berghei [25]): 100%
- survival at 10 mg/kg (Plasmodium berghei [26]): 0%
- Activity (Plasmodium berghei [27]): 0%
- Activity (Plasmodium berghei [28]): 0%
- survival at 80 mg/kg (Plasmodium berghei [29]): 0%
- MST (Plasmodium berghei [30]): 16 days
- Activity (Plasmodium berghei [31]): 80%
- Activity (Plasmodium berghei [32]): 0%

Structure (SMILES): O[C@@H](CNCCNC1CC1)c1cc(C(F)(F)F)nc2c(C(F)(F)F)cccc12
- IC90 (Plasmodium falciparum [8]): 0.075 µg/mL (≈ 0.184 µM)
- IC90 (Plasmodium falciparum [13]): 0.011 µg/mL (≈ 0.027 µM)
- IC90 (Plasmodium falciparum [15]): 0.103 µg/mL (≈ 0.253 µM)
- IC90 (Plasmodium falciparum [16]): 0.037 µg/mL (≈ 0.0908 µM)

Structure (SMILES): OC(CNC[C@]12CC[C@H](C1)NC2)c1cc(C(F)(F)F)nc2c(C(F)(F)F)cccc12 (stereo partly drawn)
- IC90 (Plasmodium falciparum [1]): > 0.5 µg/mL
- IC90 (Plasmodium falciparum [2]): > 0.5 µg/mL
- IC90 (Plasmodium falciparum [3]): > 0.5 µg/mL
- IC90 (Plasmodium falciparum [4]): 0.57 µg/mL (≈ 1.32 µM)

Structure (SMILES): OC(NC[C@H]1CCCN1)c1cc(C(F)(F)F)nc2c(C(F)(F)F)cccc12 (stereo partly drawn)
- IC90 (Plasmodium falciparum [1]): 0.04 µg/mL (≈ 0.102 µM)
- IC90 (Plasmodium falciparum [2]): 0.074 µg/mL (≈ 0.188 µM)
- IC90 (Plasmodium falciparum [3]): 0.054 µg/mL (≈ 0.137 µM)
- IC90 (Plasmodium falciparum [4]): 0.008 µg/mL (≈ 0.0203 µM)

Structure (SMILES): OC(NC[C@]12CC[C@@H](C1)NC2)c1cc(C(F)(F)F)nc2c(C(F)(F)F)cccc12 (stereo partly drawn)
- IC90 (Plasmodium falciparum [1]): 0.075 µg/mL (≈ 0.179 µM)
- IC90 (Plasmodium falciparum [2]): 0.26 µg/mL (≈ 0.62 µM)
- IC90 (Plasmodium falciparum [4]): 0.275 µg/mL (≈ 0.656 µM)

Structure (SMILES): OC(CNCCNCc1ccccc1)c1cc(C(F)(F)F)nc2c(C(F)(F)F)cccc12 (stereo not drawn)
- IC90 (Plasmodium falciparum [1]): 0.025 µg/mL (≈ 0.0547 µM)
- Papp A→B at 2 h, 5 µM [5]: 8.5 ×10⁻⁶ cm/s
- IC90 (Plasmodium falciparum [6]): 0.029 µg/mL (≈ 0.0634 µM)
- IC90 (Plasmodium falciparum [7]): 0.04 µg/mL (≈ 0.0874 µM)
- IC90 (Plasmodium falciparum [4]): 0.006 µg/mL (≈ 0.0131 µM)

Structure (SMILES): CC1C(NCC(O)c2cc(C(F)(F)F)nc3c(C(F)(F)F)cccc23)CC2CC1C2(C)C (stereo not drawn)
- IC90 (Plasmodium falciparum [1]): 0.014 µg/mL (≈ 0.0304 µM)
- IC90 (Plasmodium falciparum [2]): 0.019 µg/mL (≈ 0.0413 µM)
- IC90 (Plasmodium falciparum [3]): 0.016 µg/mL (≈ 0.0347 µM)

Structure (SMILES): CCN(CC)CCCC(C)Nc1ccnc2cc(Cl)ccc12 (stereo not drawn) [CHLOROQUINE]
- IC90 (Plasmodium falciparum [8]): 0.139 µg/mL (≈ 0.435 µM)
- IC90 (Plasmodium falciparum [13]): 0.266 µg/mL (≈ 0.832 µM)
- IC90 (Plasmodium falciparum [15]): 0.089 µg/mL (≈ 0.278 µM)
- IC90 (Plasmodium falciparum [16]): 0.0051 µg/mL (≈ 0.0159 µM)

Structure (SMILES): OC(c1cc(C(F)(F)F)nc2c(C(F)(F)F)cccc12)C1CCCCN1 (stereo not drawn) [MEFLOQUINE]
- MST (Plasmodium berghei [9]): 24 days
- MST (Plasmodium berghei [10]): 17 days
- Activity (Plasmodium berghei [11]): 10%
- survival at 160 mg/kg (Plasmodium berghei [12]): 50%
- IC90 (Plasmodium falciparum [13]): 0.0067 µg/mL (≈ 0.0177 µM)
- MST (Plasmodium berghei [14]): 26 days
- IC90 (Plasmodium falciparum [15]): 0.053 µg/mL (≈ 0.14 µM)
- IC90 (Plasmodium falciparum [1]): 0.016 µg/mL (≈ 0.0423 µM)
- IC90 (Plasmodium falciparum [16]): 0.016 µg/mL (≈ 0.0423 µM)
- IC90 (Plasmodium falciparum [2]): 0.053 µg/mL (≈ 0.14 µM)
- survival at 20 mg/kg (Plasmodium berghei [17]): 30%
- Activity (Plasmodium berghei [18]): 20%
- MST (Plasmodium berghei [19]): 22 days
- survival at 5 mg/kg (Plasmodium berghei [20]): 20%
- Activity (Plasmodium berghei [21]): 30%
- MST (Plasmodium berghei [22]): 27 days
- survival at 40 mg/kg (Plasmodium berghei [23]): 56%
- MST (Plasmodium berghei [24]): 15 days
- survival at 320 mg/kg (Plasmodium berghei [25]): 60%
- survival at 10 mg/kg (Plasmodium berghei [26]): 0%
- Activity (Plasmodium berghei [27]): 0%
- Activity (Plasmodium berghei [28]): 36%
- survival at 80 mg/kg (Plasmodium berghei [29]): 70%
- IC90 (Plasmodium falciparum [6]): 0.015 µg/mL (≈ 0.0396 µM)
- IC90 (Plasmodium falciparum [7]): 0.042 µg/mL (≈ 0.111 µM)
- MST (Plasmodium berghei [30]): 28 days
- Activity (Plasmodium berghei [31]): 50%
- IC90 (Plasmodium falciparum [4]): 0.0067 µg/mL (≈ 0.0177 µM)
- Activity (Plasmodium berghei [32]): 20%
